The values that follow come from patent US20220160680A1, “MICROORGANISM MIXTURES, MOLECULES DERIVED THEREFROM, AND METHODS OF USE THEREOF” (B. G. Negev Technologies and Applications Ltd., at …, priority 2018, published 2022).

The target of one assay is T1, amyloid beta (αβ1-42) (Homo sapiens, UniProt P05067).
T1 construct: samples containing 30 μM amyloid beta [4(1-42)] in the absence or presence of tryptophol acetate
Kind of assay: Transmission electron microscopy of fibrillation. Type of assay: biochemical. Conditions: 24 hr, 37° C. As for the experimental part: TEM grids were prepared after 24 hr incubation at 37° C. of samples containing 30 μM 4(1-42) in the absence or presence of tryptophol acetate in different concentrations.

Assay [1] has as its system Pseudomonas aeruginosa LasR. In words: Quorum sensing bioluminescence reporter assay. Type of assay: cell-based. Conditions: C12 AI. As for the experimental part:
(§1) FIGS. 8A-8E are vertical bar graphs showing bioluminescence screening of quorum sensing (QS) inhibition or activation in the presence of synthetic Tryptophol acetate. The assay was performed using mutant bacteria lacking genes encoding autoinducers. Bacteria were also cloned with a bioluminescence reporter plasmid. N-acyl Homoserine Lactone (AHL) was used for activation (agonist) or inhibition (antagonist) of the following bacteria: Agrobacterium tumefaciens, which responds to the C8 autoinducer (AI), Vibrio cholerae responds to the CAI1 autoinducer, Pseudomonas aeruginosa RhlA responds to the C4 AI and Pseudomonas aeruginosa LasR responds to the C12 AI.
(§2) Bioluminescence assay was performed with mutant bacteria lacking the nucleotide sequences encoding the relevant autoinducers (AI). Additionally, the bacteria were cloned with bioluminescence reporter plasmids in order to measure their luminescence intensity when quorum sensing gene expression occurs. Ninety-six (96) well microtiter plate assays were used to assess AI activation (agonist) or inhibition (antagonist) of the following bacteria: Agrobacterium tumefaciens, which responds to the C8 autoinducer, and both Vibrio cholerae and Vibrio harveyi, which respond to the (S)-4,5-dihydroxy-2,3-pentanedione (DPD) autoinducer to communicate.

Assay [2] deals with Pseudomonas aeruginosa RhlA. Kind of assay: Quorum sensing bioluminescence reporter assay. The assay is classed as cell-based. Conditions: C4 AI, high volume. As for the experimental part:
as §1, §2

The subject of another assay is Staphylococcus aureus. Kind of assay: Static biofilm assay (CLSM). Type of assay: cell-based. Conditions: 50 μM. The method, then: For static biofilm assay, overnight cultures of P. aeruginosa (PA01), Salmonella and Staphylococcus aureus strains were diluted 1:10 in fresh LB medium containing a final concentration of synthesized molecule (203) of 20 or 50 μM, or DMSO (up to 1%) as control. Biofilms were grown under non-shaking conditions at 37° C. in 96-well plate (Thermo Scientific, Rochester, N.Y., USA). […] The stained cells were washed twice with PBS. Biofilm images were taken by CLSM (Plan-Apochromat 20×/0.8 M27, Zeiss LSM880, Germany).
P. aeruginosa PA01, Salmonella and Staphylococcus aureus strains were incubated for 24 hr at 37° C. The bacterial suspension was diluted 1:10 with fresh LB and incubated for 3 h with the kefir biomass crude extract molecules or with DMSO as a control (refreshment sample). In all cultures, DMSO concentration was up to 1% (v/v). 200 μl of the broth medium mix with yogurt extract or with DMSO as control were placed in each well of a 96-well plate (Thermo Scientific, Rochester, N.Y., USA). 2 μl refreshment samples were added to each suitable well. The plate incubated for 24 hr at 37° C. After the incubation the samples washed three times with PBS. For visualizing of viable cells, the bacteria were stained green and dead cells stained red using the BacLight® Dead/Live Kit (Invitrogen, Eugene, Oreg., USA). The stained cells were washed twice with PBS. […]

T1 sequence (P05067 672-713 limits assumed): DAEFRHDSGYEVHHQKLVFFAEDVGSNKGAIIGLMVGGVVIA

As for `CC(=O)OCCc1c[nH]c2ccccc12` [Tryptophol acetate], the “Fibrillation formation (TEM)” value on amyloid beta (αβ1-42) is “significantly inhibited”. Also, in assay [1], the “Effect on QS in P. aeruginosa (LasR)” value is reported as “low inhibition effect”. In addition, the “Effect on QS in P. aeruginosa (RhlA)” value in assay [2] is listed as “low inhibition effect”. The “Biofilm formation, Staphylococcus aureus” value in the assay with Staphylococcus aureus is on record as “significant influence on biofilm formation”.
